Reference: article PMC6802219, “A kinase-independent role for CDK8 in BCR-ABL1^+ leukemia” (Nature Communications, 2019)
Read-outs that look alike come from different tables or passages of the source. Each block holds one compound with its values, some of them ahead of it.

Assays:
#7 = assay: cells; design: species or system primary ALL patient cells; 3H-thymidine incorporation proliferation assay in primary ALL patient cells; details: 48 h
Description: (§1) Synthesis details of YKL-06-101 and JH-XI-10-02 are provided in Supplementary Notes 1 and 2. Proliferation of degrader-exposed human leukemic cell lines and primary ALL patient cells were examined by measuring 3H-thymidine uptake after 48 h. For immunoblottings and FACS analysis, cells were incubated with the indicated concentrations of the degraders up to 96 h.  Fig. 7 Chemical CDK8 degradation cooperates with mTOR inhibition. a Co-expression matrix of CDK8 and members of mTOR/PI3K signaling pathways in samples of 203 pediatric ALL patients (TARGET cohort, RNA-seq) and b 179 AML patients (TCGA AML cohort, RNA-seq). […] DMSO was used as vehicle control (D: DMSO, n = 3). Immunoblots show mTOR, CDK8, and pS6 after incubation of f REH cells or g Z119 cells with 0.5 µM and 1 µM of JH-XI-10-02 or YKL-06-101 for 48, 72, and 96 h. DMSO (indicated as D) was used as vehicle control and β-actin served as loading control. h AnnexinV/7AAD staining of Z119 cells incubated with 0.5 µM and 1 µM of JH-XI-10-02 or YKL-06-101 for 72 and 96 h. DMSO was used as a vehicle control (D: DMSO, n = 3). i AnnexinV/7AAD staining of Z119 cells incubated with Torin1, JH-XI-10-02, or both in combination with indicated concentrations for 72 and 96 h. DMSO (indicated as D) was used as a vehicle control. One representative experiment out of three is depicted. j Bar diagram depicts relative thymidine incorporation of six primary B-ALL patient samples incubated for 48 h with 1 μM of YKL-06-101. Patient #1 represents a non-responder, patient #4 was BCR-ABL1^+ (Ph^+), whereas the others were BCR-ABL1^− (Ph^−). Levels of significance were calculated using Kruskal–Wallis test followed by Dunn’s test, data represents means ± SD (*p < 0.05, **p < 0.01). Source data are provided as a Source Data file

#15 = assay: cells; design: species or system primary ALL patient cells; 3H-thymidine incorporation proliferation assay in primary ALL patient cells; details: 48 h
Description: as §1

#3 = assay: cells; design: species or system primary ALL patient cells; 3H-thymidine incorporation proliferation assay in primary ALL patient cells; details: 48 h
Description: as §1

#12 = assay: cells; design: species or system primary ALL patient cells; 3H-thymidine incorporation proliferation assay in primary ALL patient cells; details: 48 h
Description: as §1

#11 = assay: cells; design: species or system primary ALL patient cells; 3H-thymidine incorporation proliferation assay in primary ALL patient cells; details: 48 h
Description: as §1

#4 = assay: cells; design: species or system primary ALL patient cells; 3H-thymidine incorporation proliferation assay in primary ALL patient cells; details: 48 h
Description: as §1

#1 = assay: cells; design: species or system primary ALL patient cells; 3H-thymidine incorporation proliferation assay in primary ALL patient cells; details: 48 h
Description: as §1

#14 = assay: cells; design: species or system primary ALL patient cells; 3H-thymidine incorporation proliferation assay in primary ALL patient cells; details: 48 h
Description: as §1

#8 = assay: cells; design: species or system primary ALL patient cells; 3H-thymidine incorporation proliferation assay in primary ALL patient cells; details: 48 h
Description: as §1

#6 = assay: cells; design: species or system primary ALL patient cells; 3H-thymidine incorporation proliferation assay in primary ALL patient cells; details: 48 h
Description: as §1

#9 = assay: cells; design: species or system primary ALL patient cells; 3H-thymidine incorporation proliferation assay in primary ALL patient cells; details: 48 h
Description: as §1

#13 = assay: cells; design: species or system primary ALL patient cells; 3H-thymidine incorporation proliferation assay in primary ALL patient cells; details: 48 h
Description: as §1

CDK8 = CDK8 (Homo sapiens, UniProt P49336); assay: CDK8 kinase inhibition IC50 (assay not detailed in main text); format: biochemical
CDK8, sequence (P49336 whole entry): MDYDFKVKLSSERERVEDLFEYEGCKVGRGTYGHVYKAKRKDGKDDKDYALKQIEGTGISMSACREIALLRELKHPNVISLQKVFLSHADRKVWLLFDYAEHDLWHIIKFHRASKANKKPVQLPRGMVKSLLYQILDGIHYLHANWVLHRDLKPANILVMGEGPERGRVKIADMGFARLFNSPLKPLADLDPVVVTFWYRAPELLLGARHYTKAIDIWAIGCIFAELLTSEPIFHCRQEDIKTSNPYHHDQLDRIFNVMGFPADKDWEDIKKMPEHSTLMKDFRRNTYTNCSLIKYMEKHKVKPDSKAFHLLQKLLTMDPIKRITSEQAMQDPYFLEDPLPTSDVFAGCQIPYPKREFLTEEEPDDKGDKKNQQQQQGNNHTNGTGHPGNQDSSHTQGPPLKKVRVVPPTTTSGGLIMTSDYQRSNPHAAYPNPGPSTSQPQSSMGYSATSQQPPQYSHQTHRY

Compound: CN(C(=O)CCOCCOCCOCCOCCNc1cccc2c1C(=O)N(C1CCC(=O)NC1=O)C2=O)[C@H]1CC[C@@]2(C)[C@@H](CC[C@@H]3[C@@H]2CC[C@]2(C)[C@@H](c4ccc5ccncc5c4)CC[C@@H]32)C1 (stereo partly shown) [JH-XI-10-02]
IC50 (#7; read-out: JH-XI-10-02 IC50): > 10 µM
IC50 (#15; read-out: JH-XI-10-02 IC50): > 10 µM
IC50 (#3; read-out: JH-XI-10-02 IC50): > 10 µM
IC50 (#12; read-out: JH-XI-10-02 IC50): > 10 µM
IC50 (#11; read-out: JH-XI-10-02 IC50): > 10 µM
IC50 (#4; read-out: JH-XI-10-02 IC50): > 10 µM
IC50 (#1; read-out: JH-XI-10-02 IC50): > 10 µM
IC50 (#14; read-out: JH-XI-10-02 IC50): > 10 µM
IC50 (#8; read-out: JH-XI-10-02 IC50): > 10 µM
IC50 (#6; read-out: JH-XI-10-02 IC50): > 10 µM
IC50 (#9; read-out: JH-XI-10-02 IC50): > 10 µM
IC50 (#13; read-out: JH-XI-10-02 IC50): > 10 µM

Compound: O=C1CCC(N2C(=O)c3cccc(NCCOCCOCCOCCOCCOCCC(=O)N4CCN(c5ccc(-n6c(=O)ccc7cnc8ccc(-c9ccc%10ccncc%10c9)cc8c76)cc5C(F)(F)F)CC4)c3C2=O)C(=O)N1 (stereo not shown) [YKL-06-101]
IC50 (#7; read-out: YKL-06-101 IC50): > 10 µM
IC50 (#15; read-out: YKL-06-101 IC50): 10 µM
IC50 (#3; read-out: YKL-06-101 IC50): 0.9 µM
IC50 (#12; read-out: YKL-06-101 IC50): > 10 µM
IC50 (#11; read-out: YKL-06-101 IC50): 0.4 µM
IC50 (#4; read-out: YKL-06-101 IC50): > 10 µM
IC50 (#1; read-out: YKL-06-101 IC50): > 10 µM
IC50 (#14; read-out: YKL-06-101 IC50): > 10 µM
IC50 (#8; read-out: YKL-06-101 IC50): > 10 µM
IC50 (#6; read-out: YKL-06-101 IC50): 0.1 µM
IC50 (#9; read-out: YKL-06-101 IC50): 9 µM
IC50 (#13; read-out: YKL-06-101 IC50): 0.3 µM

IC50 (CDK8): 0.005 µM
Compound: THZ4-55
